Results on 8 compounds are retold here after patent publication US8389472B2, “Exendin-4 to treat nonalcoholic steatohepatitis and nonalcoholic fatty liver disease” (Amylin Pharmaceuticals, LLC, priority 2005, dated 2013).

For series [1] the following is noted: in treated test animals; cited from earlier work.
A further series relates to T2DM patients. The note with it: head-to-head comparator trial; cited from earlier work.
In the next series the test system is cloned GLP-1 receptor. The note with it: cells transfected with the cloned GLP-1 receptor; cited from earlier work.
For series [2] the following is noted: compared to human amylin; cited from earlier work.
Series [3] is described as follows: adsorption onto glass container in liquid form. Type of series: physicochemical. The source says: However, with regard to compounds Which do have such a tendency when in liquid final, a surfactant should be used in their formulation. These formulations may then be lyophilized. Surfactants frequently cause denaturation of protein, both of hydrophobic disruption and by salt bridge separation. Relatively low concentrations of surfactant may exert a potent denaturing activity, because of the strong interactions between surfactant moieties and the reactive sites on proteins. However, judicious use of this interaction can stabilize proteins against interfacial or surface denaturation. Surfactants which could further stabilize the peptide may optionally be present in the range of about 0.001 to 0.3% (w/v) of the total formulation and include polysorbate 80 (i.e., polyoxyethylene(20) sorbitan monooleate), CHAPS® (i.e., 3-[(3-Cholamidopropyl)dimethylammonio]propanesulfonic acid), BRIJ® (e.g., Brij 35, which is (polyoxyethylene(23) lauryl ether), poloxamer, or another non-ionic surfactant.

No end group written: not given here.

For “^28Pro-h-amylin (KCNTATCATQRLANFLVHSSNNFGAILPSTNVGSNTY) [amylin agonist analog]”, in series [1], the amylin activity result is on record as “amylin activity in vivo”.

For the compound insulin glargine, in the series with T2DM patients, the HbA1c reductions is ~1.1% and the weight gain is reported as ~1.8 kg.

Consider exendin[9-39], for which the “functional activity (cAMP)” value with cloned GLP-1 receptor is reported as “antagonist”.

In the case of “^18Arg^25,28Pro-h-amylin (KCNTATCATQRLANFLVRSSNNFGPILPSTNVGSNTY) [amylin agonist analog]”, in series [1], the amylin activity entry is given as “amylin activity in vivo”. Also, in series [2], the “solubility and stability characteristics” value is “more desirable solubility and stability characteristics”.

Consider “^25Pro^26Val^28,29Pro-h-amylin (KCNTATCATQRLANFLVHSSNNFGPVLPPTNVGSNTY) [amylin agonist analog]”, for which the “solubility and stability characteristics” value in series [2] was “more desirable solubility and stability characteristics”.

With `CC[C@H](C)[C@H](NC(=O)[C@@H]1CCCN1C(=O)CNC(=O)[C@H](Cc1ccccc1)NC(=O)[C@H](CC(N)=O)NC(=O)[C@H](CC(N)=O)NC(=O)[C@H](CO)NC(=O)[C@H](CO)NC(=O)[C@H](Cc1c[nH]cn1)NC(=O)[C@@H](NC(=O)[C@H](CC(C)C)NC(=O)[C@H](Cc1ccccc1)NC(=O)[C@H](CC(N)=O)NC(=O)[C@H](C)NC(=O)[C@H](CC(C)C)NC(=O)[C@H](CCCNC(=N)N)NC(=O)[C@H](CCC(N)=O)NC(=O)[C@@H](NC(=O)[C@H](C)NC(=O)[C@@H]1CSSC[C@H](NC(=O)[C@@H](N)CCCCN)C(=O)N[C@@H](CC(N)=O)C(=O)N[C@@H]([C@@H](C)O)C(=O)N[C@@H](C)C(=O)N[C@@H]([C@@H](C)O)C(=O)N1)[C@@H](C)O)C(C)C)C(=O)N[C@@H](CC(C)C)C(=O)N1CCC[C@H]1C(=O)N1CCC[C@H]1C(=O)N[C@H](C(=O)N[C@@H](CC(N)=O)C(=O)N[C@H](C(=O)NCC(=O)N[C@@H](CO)C(=O)N[C@@H](CC(N)=O)C(=O)N[C@H](C(=O)N[C@@H](Cc1ccc(O)cc1)C(N)=O)[C@@H](C)O)C(C)C)[C@@H](C)O` [^25,28,29Pro-h-amylin, reference compound], in series [3], the “tendency to adsorb onto the glass” value was “does not have a tendency to adsorb onto the glass”. The amylin activity result in series [1] is on record as “amylin activity in vivo”.

Consider des-^1Lys^18Arg^25,28Pro-h-amylin, for which the amylin activity entry in series [1] is “amylin activity in vivo”.

On to “des-^1Lys-h-amylin (CNTATCATQRLANFLVHSSNNFGAILSSTNVGSNTY; ends and bridges not checked; cysteine pairing not given here; UniProt P10997 34-70, looked up, variant K1*) [amylin agonist analog]”, for which the amylin activity result in series [1] was “amylin activity in vivo”.
